Peptide text beside a SMILES is read from it. * marks the point of attachment. Propyl(2R-PamO,3-PamO) = CCCCCCCCCCCCCCCC(=O)OC[C@H](C*)OC(=O)CCCCCCCCCCCCCCC
Experiments:
[1] = system: mice; assay: Mitigation of radiation injury, injection 1 hr after TBI; assay type: in vivo
Experimental: The ability of CBLB612 to serve as a mitigator of lower dose radiation injury was also examined. For this, 50 μg of CBLB612/mouse was injected intramuscularly 1 hr after exposure to 8.5, 9, or 10 Gy of TBI.

[2] = target: T1, TLR2/TLR6 heterodimer (Homo sapiens, UniProt O60603+Q9Y2C9); assay: NF-κB-dependent reporter activity in 293 cells expressing the TLR2/TLR6 heterodimer; assay type: cell-based; set-up: NF-κB activation: scale not given here; details: for activation of the NF-κB reporter (in words, compared with CBLB601): 293 cells expressing TLR2/TLR6, various doses; for NF-κB activation: in vitro activity, 293 cells expressing TLR2/TLR6
T1 construct: expressed in transfected cells; host or cells: 293 cells
Experimental: NF-κB-dependent reporter activity was measured in 293 cells that expressed the TLR2/YLR6 heterodimer. […] None of the non-palmitoylated corresponding peptides activated the NF-κB reporter (FIG. 18B). The peptide component of CBLB617 has a (−4) charge, which should prevent it from interacting with negatively charged cell surface markers. […] Table 5 summarizes the in vitro activity and solubility of all the compounds.

[3] = Solubility of the lipopeptides
[4] = system: ICR mice; assay: Radioprotection against total body gamma irradiation (TBI), 30-day survival; assay type: in vivo; details: for toxicity in combination with radiation: i.m. 24 hours before 10 Gy TBI; for rank of radioprotective potency: i.m. 24 hrs before 10 Gy TBI; for radioprotector quality compared with CBLB601: mouse, in vivo; for therapeutic index: summary of Example 5
Text: CBLB601, a R-Pam2-lipopeptide with the peptide moiety consisting of C-SKKKK (SEQ ID NO: 8), was selected for more detailed characterization as a radioprotector based upon its ability to activate NF-κB and preliminary in vivo data on radioprotection in NIH-SWISS mice (see Example 2). The objectives of this study were to determine the optimal dose, route of administration, and time of administration of CBLB601 to serve as a protector. ICR female mice of 10-15 weeks of age were used, with 10-15 animals per group or condition.
The optimal intraperitoneal administration schedule of CBLB601 was determined by injecting the compound at different times prior to irradiation. […] Therefore, all of the optimization experiments were performed with 10 Gy of total body irradiation (TBI). A dose of 3 μg of BCLB601/mouse (1/10 NOAEL) was chosen as the starting dose. Thus, 3 μg of CBLB601 was injected i.p. into ICR mice at 0.5 h, 1 h, 6 h, and 24 h or 1 h, 24 h, 48 h, 72 h, 96 h prior to 10 Gy of TBI (as described in Example 1). […] Injection of CBLB601 24 hrs before irradiation clearly yielded the best radioprotection (90-100% 30-day survival). When the compound was administered 48 hrs before irradiation, the radioprotection was ˜30%. Administration of CBLB601 at 1 hr prior to irradiation produced inconsistent results ranging from 80% protection in one experiment (FIG. 5B) to almost no protection (20%) in another experiment (FIG. 5A).
To determine the optimal radioprotective dose of CBLB601, the timing of injection and level of irradiation were kept constant, while the dose of CBLB601 was varied. ICR mice were injected i.p. with 1, 3, 10, 20, or 30 μg of CBLB601/mouse or 0.1, 0.3, 1, 3, 10, or […] 24 hrs prior to irradiation (10 Gy of TBI), and their survival was monitored for 30 days. The best protective dose was 3 μg/mouse, which supported a survival of 100% (FIGS. 6 A and B). […] Thus, the optimal protective dose of CBLB601 was determined to be 3 μg/mouse.
To determine the level of radiation that was protected by CBLB601, radioprotectant-treated and control mice were exposed to increasing levels of TBI. Groups of ICR mice were injected i.p. with either 3 μg CBLB601/mouse or PBS, and then 24 h later they received 10, 11, 12, 13, 14, and 15 Gy doses of TBI. Survival was recorded over 30 days. […] All of the mice irradiated with 10-11 Gy of TBI died between days 12-14 post irradiation, which was typical for death due to hematopoietic failure. All of the mice that received 14-15 Gy of TBI died between days 7-9 post irradiation, which was typical for mortality due to radiation-induced intestinal damage. Mice that were irradiated with 12-13 Gy of TBI died at intermediate times, which was typical for a mixed etiology of radiation-induced mortality. […] To reach a statistically significant 10% difference between control and CBLB601-treated mice, experimental groups of at least 50 mice must be used. Although CBLB601 rescued 100% of mice from 10 Gy of TBI, its protection at 11 Gy of TBI was only 20%. […] This may be indicative of a combined toxicity of the drug and the irradiation.
CBLB601 was administered intramuscularly to determine the optimal route of administration of this compound (especially since this would be the preferred route of administration for humans). […] In another experiment, increasing doses of CBLB601 administered i.m. were tested against 10, 11, and 12 Gy doses of […] (FIG. 9). […] A summary of the dose-dependency of the radioprotection of […] administered i.p. or i.m. 24 h prior to 10 Gy of TBI is shown in FIG. 10.
The optimal schedule of intramuscular administration of CBLB601 was determined by varying the time between drug delivery and irradiation. ICR mice were injected i.m. with 3 μg of CBLB601/mouse 24 h, 6 h, 3 h, and 1 h prior to TBI and +1 h, +3 h after TBI (FIG. 12A), as well as 48 h, 36 h, 24 h, 12 h, and 6 h prior to TBI (FIG. 12B). […]

[5] = system: C57B1/6J mice; assay: Survival after gamma irradiation with p53 inhibitor pretreatment; assay type: in vivo; details: 10 mg/kg i.p.
Experimental: To examine the role of p53 in radiation-induced death, mice were treated with the small molecule inhibitor of p53, pifithrin-alpha (PFTα) (Komarov et al., Science 285:1733-7, 1999) immediately prior to gamma irradiation. C57B1/6J mice (6-8 weeks old males were used here and below, if not indicated otherwise) were injected intraperitoneally with 10 mg/kg of PFTα and then irradiated using a Shepherd 4000 Ci ^137Cesium source at a dose rate of 4 Gy per minute.

T1 sequence (O60603 21-784): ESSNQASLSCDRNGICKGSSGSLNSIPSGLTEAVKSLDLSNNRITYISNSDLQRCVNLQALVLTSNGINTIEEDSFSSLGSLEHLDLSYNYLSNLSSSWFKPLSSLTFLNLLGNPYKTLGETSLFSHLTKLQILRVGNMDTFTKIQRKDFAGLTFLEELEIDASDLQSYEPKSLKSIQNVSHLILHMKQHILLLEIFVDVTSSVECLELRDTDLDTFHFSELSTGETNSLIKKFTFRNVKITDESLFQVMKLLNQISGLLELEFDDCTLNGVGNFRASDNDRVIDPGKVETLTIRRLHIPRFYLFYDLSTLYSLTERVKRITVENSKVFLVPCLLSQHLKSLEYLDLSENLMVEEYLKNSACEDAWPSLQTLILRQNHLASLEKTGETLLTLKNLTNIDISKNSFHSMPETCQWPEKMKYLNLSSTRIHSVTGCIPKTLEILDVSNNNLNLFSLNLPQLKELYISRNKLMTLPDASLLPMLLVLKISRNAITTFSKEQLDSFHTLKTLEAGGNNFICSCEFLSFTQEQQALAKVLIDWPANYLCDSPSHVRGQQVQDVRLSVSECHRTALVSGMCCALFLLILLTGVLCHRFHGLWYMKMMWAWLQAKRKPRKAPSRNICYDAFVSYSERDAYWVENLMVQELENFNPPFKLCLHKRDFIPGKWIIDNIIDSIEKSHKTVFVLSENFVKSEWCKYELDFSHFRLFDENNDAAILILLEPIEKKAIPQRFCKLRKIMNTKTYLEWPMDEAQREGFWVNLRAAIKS
T1 sequence (Q9Y2C9 32-796): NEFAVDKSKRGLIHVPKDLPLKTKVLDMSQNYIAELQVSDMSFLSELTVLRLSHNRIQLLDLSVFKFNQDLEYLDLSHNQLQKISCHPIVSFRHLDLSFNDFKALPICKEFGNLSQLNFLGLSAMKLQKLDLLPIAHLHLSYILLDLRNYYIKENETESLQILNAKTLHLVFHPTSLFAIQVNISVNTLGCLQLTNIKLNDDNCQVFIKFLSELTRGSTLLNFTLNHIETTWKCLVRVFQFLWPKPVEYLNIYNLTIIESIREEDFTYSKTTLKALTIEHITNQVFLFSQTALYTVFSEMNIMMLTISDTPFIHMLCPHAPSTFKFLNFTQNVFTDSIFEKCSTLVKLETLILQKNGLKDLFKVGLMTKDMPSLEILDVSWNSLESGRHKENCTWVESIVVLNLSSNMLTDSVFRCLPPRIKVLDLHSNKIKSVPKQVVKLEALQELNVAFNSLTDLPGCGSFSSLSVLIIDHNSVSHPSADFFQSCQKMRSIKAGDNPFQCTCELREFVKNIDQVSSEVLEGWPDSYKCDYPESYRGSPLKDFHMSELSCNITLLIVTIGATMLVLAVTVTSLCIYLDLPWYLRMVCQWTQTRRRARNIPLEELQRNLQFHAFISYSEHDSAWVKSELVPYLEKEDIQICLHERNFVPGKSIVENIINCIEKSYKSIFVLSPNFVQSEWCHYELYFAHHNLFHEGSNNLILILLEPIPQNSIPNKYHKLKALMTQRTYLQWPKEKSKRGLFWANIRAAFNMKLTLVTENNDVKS

Compound | survival rate versus PBS ([1]; 50 μg/mouse i.m. 1 hr after 8.5, 9 or 10 Gy TBI) | mice surviving to 27 days ([1]; 50 μg/mouse i.m. 1 hr after 8.5 Gy TBI) [%] | mice surviving to 27 days ([1]; 50 μg/mouse i.m. 1 hr after 9 Gy TBI) [%] | activation of the NF-κB reporter (in words, compared with CBLB601) [2] | NF-κB activation [2] | Solubility [3] | toxicity in combination with radiation [4] | rank of radioprotective potency [4] | radioprotector quality compared with CBLB601 [4] | therapeutic index [4] | protection (30-day survival) ([4]; doses of 10, 30 and 82.5 μg/mouse i.m. 24 hours before 10 Gy TBI) [%] | survival ([4]; after 13 days, doses of 10-87.5 μg/mouse respectively, 10 Gy TBI) | visible toxicity ([4]; after 13 days, highest dose 87.5 μg/mouse, 10 Gy TBI) | survival of irradiated mice ([5]; fractioned cumulative 12.5 Gy (5×2.5 Gy)) | survival of irradiated mice ([5]; single 9 Gy dose) | survival of irradiated mice ([5]; single 12.5 Gy) | survival of irradiated mice ([5]; single 25 Gy)
CCCCCCCCCCCCCCCC(=O)OC[C@H](CSC[C@H](N)C(=O)N[C@H](C(=O)N[C@@H](CCC(N)=O)C(=O)NCC(=O)N[C@@H](CCC(=O)O)C(=O)N[C@@H](CCC(=O)O)C(=O)N[C@@H](CO)C(=O)N[C@@H](CC(N)=O)C(=O)N[C@@H](CC(=O)O)C(=O)N[C@@H](CCCCN)C(=O)O)C(C)C)OC(=O)CCCCCCCCCCCCCCC [CBLB612] (H-C(Propyl(2R-PamO,3-PamO))VQGEESNDK-OH) | increased the survival rate at every dose of radiation | 90 | 70 | better activators than CBLB601 | 200 | Excellent | no toxicity in combination with radiation | CBLB612>CBLB614>CBLB615 | significantly better radioprotectors than CBLB601 | ~20 | – | – | – | – | – | – | –
CCCCCCCCCCCCCCCC(=O)OC[C@H](CSC[C@H](N)C(=O)NCC(=O)N[C@@H](CCC(=O)O)C(=O)N[C@H](C(=O)N[C@@H](CC(=O)O)C(=O)N[C@@H](CCCCN)C(=O)O)[C@@H](C)O)OC(=O)CCCCCCCCCCCCCCC [CBLB613] (H-C(Propyl(2R-PamO,3-PamO))GETDK-OH) | – | – | – | comparable to that of CBLN601 | 200 | Soluble | non-toxic in combination with the radiation | – | significantly better radioprotectors than CBLB601 | ~20 | 100 | – | – | – | – | – | –
CCCCCCCCCCCCCCCC(=O)OC[C@H](CSC[C@H](N)C(=O)N[C@@H](CCC(N)=O)C(=O)NCC(=O)N[C@@H](CCC(=O)O)C(=O)N[C@@H](CCC(=O)O)C(=O)N[C@@H](CO)C(=O)N[C@@H](CC(N)=O)C(=O)N[C@@H](CC(=O)O)C(=O)N[C@@H](CCCCN)C(=O)O)OC(=O)CCCCCCCCCCCCCCC [CBLB614] (H-C(Propyl(2R-PamO,3-PamO))QGEESNDK-OH) | – | – | – | better activators than CBLB601 | 200 | Soluble | no toxicity in combination with radiation | CBLB612>CBLB614>CBLB615 | – | – | – | – | – | – | – | – | –
CCCCCCCCCCCCCCCC(=O)OC[C@H](CSC[C@H](N)C(=O)NCC(=O)N[C@@H](CCC(=O)O)C(=O)N[C@@H](CCC(=O)O)C(=O)N[C@@H](CO)C(=O)N[C@@H](CC(N)=O)C(=O)O)OC(=O)CCCCCCCCCCCCCCC [CBLB615] (H-C(Propyl(2R-PamO,3-PamO))GEESN-OH) | – | – | – | better activators than CBLB601 | 200 | Soluble | no toxicity in combination with radiation | CBLB612>CBLB614>CBLB615 | – | – | – | – | – | – | – | – | –
CCCCCCCCCCCCCCCC(=O)OC[C@H](CSC[C@H](N)C(=O)NCC(=O)N[C@@H](CCC(=O)O)C(=O)N[C@@H](CCC(=O)O)C(=O)N[C@@H](CC(=O)O)C(=O)N[C@@H](CC(=O)O)C(=O)O)OC(=O)CCCCCCCCCCCCCCC [CBLB617] (H-C(Propyl(2R-PamO,3-PamO))GEEDD-OH) | – | – | – | comparable to that of CBLB601 | 100 | Soluble | – | – | – | – | – | 7-90% | no visible toxicity | – | – | – | –
Cc1ccc(C(=O)Cn2c3c(sc2=N)CCCC3)cc1 [PFTα, pifithrin-alpha] | – | – | – | – | – | – | – | – | – | – | – | – | – | protected mice | protected mice | no effect on the survival | no effect on the survival

From patent US8008260B2, “Methods of protecting against apoptosis using lipopeptides” (Cleveland Clinic Foundation, priority 2005, dated 2011)
